Test [1] has as its target T1, Transcriptional activator protein LuxR (Aliivibrio fischeri) (UniProt P12746).
T1 sequence (whole entry): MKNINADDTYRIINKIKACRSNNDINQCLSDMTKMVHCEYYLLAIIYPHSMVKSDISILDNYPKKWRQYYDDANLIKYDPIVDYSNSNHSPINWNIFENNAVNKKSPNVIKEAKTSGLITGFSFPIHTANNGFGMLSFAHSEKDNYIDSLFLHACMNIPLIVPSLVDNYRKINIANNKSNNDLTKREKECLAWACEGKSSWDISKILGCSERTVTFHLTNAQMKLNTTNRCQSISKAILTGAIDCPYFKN
Description: Induction of LuxR-dependent quorum sensing in Vibrio fischeri assessed as induction of bioluminescence intensity up to 200 uM.

Test [2] has as its target T2, Transcriptional activator protein LuxR (Aliivibrio fischeri, UniProt P12746).
T2 sequence (P12746 whole entry): T1 sequence (whole entry)
In words: Inhibition of LuxR-dependent quorum sensing in Vibrio fischeri assessed as reduction of 3-oxo-C6-HSL-induced bioluminescence intensity.

Test [3] deals with T1, Transcriptional activator protein LuxR (Aliivibrio fischeri). In words: Inhibition of LuxR-dependent quorum sensing in Vibrio fischeri assessed as reduction of 3-oxo-C6-HSL-induced bioluminescence intensity at 20 uM.
Test [4] shares this target. In words: Inhibition of LuxR-dependent quorum sensing in Vibrio fischeri assessed as reduction of 3-oxo-C6-HSL-induced bioluminescence intensity at 40 uM.

Activity calls are given as the source filed them. The rule behind the calls is not given here.

For `Clc1ccc(C(c2ccc(Cl)cc2)[n+]2ccn(CC(OCc3ccc(Cl)cc3Cl)c3ccc(Cl)cc3Cl)c2)cc1` (centres undefined), in test [1], the result was inactive.

What is called IC50 is the point on the concentration scale where inhibition reaches its midpoint. Turning to `Clc1ccc(C(c2ccc(Cl)cc2)n2cc[n+](CC(OCc3ccc(Cl)cc3Cl)c3ccc(Cl)cc3Cl)c2)cc1` (centres undefined) [CALMIDAZOLIUM CHLORIDE], the IC50 in test [2] stood at 7 µM.

`CC(NCCC(c1ccccc1)c1ccccc1)c1ccccc1` (centres undefined) [FENDILINE]: the half-inhibitory concentration (IC50) in test [2] is 91 µM. In test [1], the result was inactive.

`CN1CCC(=C2c3ccccc3Sc3ccccc32)CC1` [PIMETHIXENE]: the IC50 in test [2] was 56 µM. Further, the outcome in test [1] was inactive.

`CN[C@H]1CC[C@@H](c2ccc(Cl)c(Cl)c2)c2ccccc21` [SERTRALINE]: the half-inhibitory concentration (IC50) in test [2] worked out at 27 µM. In addition, the outcome in test [1] was inactive.

A word on the inhibition: it is how much of the control response was suppressed. `CC/C(=C(\c1ccccc1)c1ccc(OCCN(C)C)cc1)c1ccccc1` [TAMOXIFEN]: the half-maximal inhibitory concentration (IC50) in test [2] turned out to be 40 µM. The inhibition in test [3] worked out at 73.6%; in test [4], 53%. Besides, the outcome in test [1] was inactive.

On to `CC(C)(C)c1ccc(C(O)CCCN2CCC(C(O)(c3ccccc3)c3ccccc3)CC2)cc1` (centres undefined) [TERFENADINE], for which the IC50 in test [2] came to 92 µM. Further, in test [1], the result was inactive.

(Values after ChEMBL document CHEMBL1208756, “LuxR-dependent quorum sensing: computer aided discovery of new inhibitors structurally unrelated to N-acylhomoserine lactones” (Bioorg Med Chem Lett, 2010).)
